Experimental data published in ChEMBL document CHEMBL3885881, “DrugMatrix”.

Columns and labels:
Rattus norvegicus [1] = species on record: Rattus norvegicus; test: DrugMatrix - Regimen: Daily Repeat; type: toxicity, organism-based, Sprague-Dawley; set-up: regimen Daily Repeat, gender Male, age 6-8 weeks; conditions: in vivo, po, 1868 mg/kg, […], route oral GAVAGE, dose level High, vehicle .5 % CMC; for ALANINE AMINOTRANSFERASE / ALBUMIN / ALKALINE PHOSPHATASE / ASPARTATE AMINOTRANSFERASE / BLOOD UREA NITROGEN / CARBON DIOXIDE / CHLORIDE / CHOLESTEROL / CREATININE / GLUCOSE / LACTATE DEHYDROGENASE / LIPASE / PHOSPHORUS / POTASSIUM / SODIUM / TOTAL BILIRUBIN / TOTAL PROTEIN / URIC ACID: tissue Plasma
Rattus norvegicus [2] = species on record: Rattus norvegicus; type: toxicity, organism-based, Sprague-Dawley; conditions: in vivo, po, 1868 mg/kg, 24 h, route oral GAVAGE, dose level High, time 1 day, vehicle .5 % CMC
Description: DrugMatrix - Regimen: Single

In the case of `CC(=O)OCc1ccccc1` [E1501], the “PLATELET COUNT” value (Rattus norvegicus [1]; tissue Blood, time 11 day) is reported as 822 x10E3/uL, the “ABSOLUTE BASOPHIL” value (Rattus norvegicus [1]; tissue Blood, time 14 day) is reported as 0 CELLS/uL and the “ABSOLUTE EOSINOPHIL” value (Rattus norvegicus [1]; tissue Blood, time 14 day) is reported as 388 CELLS/uL. For the same compound, the “ABSOLUTE LYMPHOCYTE” value (Rattus norvegicus [1]; tissue Blood, time 14 day) was 14397 CELLS/uL, the “ABSOLUTE MONOCYTE” value (Rattus norvegicus [1]; tissue Blood, time 14 day) was 529.5 CELLS/uL and the “ABSOLUTE SEGMENTED NEUTROPHIL” value (Rattus norvegicus [1]; tissue Blood, time 14 day) was 1785.5 CELLS/uL. For the same compound, the BASOPHIL (Rattus norvegicus [1]; tissue Blood, time 14 day) was 0%, the EOSINOPHIL (Rattus norvegicus [1]; tissue Blood, time 14 day) was 2% and the “ERYTHROCYTE COUNT” value (Rattus norvegicus [1]; tissue Blood, time 14 day) was 6.34 x10E6/uL. The HEMATOCRIT (Rattus norvegicus [1]; tissue Blood, time 14 day) was 38%, the HEMOGLOBIN (Rattus norvegicus [1]; tissue Blood, time 14 day) was 13.85 G/DL and the “LEUKOCYTE COUNT” value (Rattus norvegicus [1]; tissue Blood, time 14 day) was 17.1 x10E3/uL. The LYMPHOCYTE (Rattus norvegicus [1]; tissue Blood, time 14 day) was 85%, the “MEAN CORPUSCULAR HEMOGLOBIN” value (Rattus norvegicus [1]; tissue Blood, time 14 day) was 21.9 pg and the “MEAN CORPUSCULAR HEMOGLOBIN CONCENTRATION” value (Rattus norvegicus [1]; tissue Blood, time 14 day) was 36.35 G/DL. For the same compound, the “MEAN CORPUSCULAR VOLUME” value (Rattus norvegicus [1]; tissue Blood, time 14 day) was 60.15 fL, the MONOCYTE (Rattus norvegicus [1]; tissue Blood, time 14 day) was 3.5% and the NEUTROPHIL (Rattus norvegicus [1]; tissue Blood, time 14 day) was 9.5%. For the same compound, the “NUCLEATED RED BLOOD CELLS” value (Rattus norvegicus [1]; tissue Blood, time 14 day) was 0 /100WBC, the “PLATELET COUNT” value (Rattus norvegicus [1]; tissue Blood, time 14 day) was 722 x10E3/uL and the “ALANINE AMINOTRANSFERASE” value (Rattus norvegicus [1]; time 11 day) was 128 u/L. The ALBUMIN (Rattus norvegicus [1]; time 11 day) was 3.9 G/DL, the “ALKALINE PHOSPHATASE” value (Rattus norvegicus [1]; time 11 day) was 284 u/L and the “ASPARTATE AMINOTRANSFERASE” value (Rattus norvegicus [1]; time 11 day) was 640 u/L. For the same compound, the “BLOOD UREA NITROGEN” value (Rattus norvegicus [1]; time 11 day) was 44 mg/dL, the “CARBON DIOXIDE” value (Rattus norvegicus [1]; time 11 day) was 31 mmol/L and the CHLORIDE (Rattus norvegicus [1]; time 11 day) was 95 MEQ/L. It also gave a CHOLESTEROL (Rattus norvegicus [1]; time 11 day) of 70 mg/dL, a CREATININE (Rattus norvegicus [1]; time 11 day) of 0.26 mg/dL and a GLUCOSE (Rattus norvegicus [1]; time 11 day) of 191 mg/dL. The “LACTATE DEHYDROGENASE” value (Rattus norvegicus [1]; time 11 day) was 656 u/L, the LIPASE (Rattus norvegicus [1]; time 11 day) was 9 u/L and the PHOSPHORUS (Rattus norvegicus [1]; time 11 day) was 14.5 mg/dL. The POTASSIUM (Rattus norvegicus [1]; time 11 day) was 4.9 MEQ/L, the SODIUM (Rattus norvegicus [1]; time 11 day) was 146.3 MEQ/L and the “TOTAL BILIRUBIN” value (Rattus norvegicus [1]; time 11 day) was 0.1 mg/dL. The “TOTAL PROTEIN” value (Rattus norvegicus [1]; time 11 day) was 5.4 G/DL, the “URIC ACID” value (Rattus norvegicus [1]; time 11 day) was 1.7 mg/dL and the “ALANINE AMINOTRANSFERASE” value (Rattus norvegicus [1]; time 14 day) was 76.5 u/L. For the same compound, the ALBUMIN (Rattus norvegicus [1]; time 14 day) was 4.3 G/DL, the “ALKALINE PHOSPHATASE” value (Rattus norvegicus [1]; time 14 day) was 267 u/L and the “ASPARTATE AMINOTRANSFERASE” value (Rattus norvegicus [1]; time 14 day) was 238 u/L. For the same compound, the “BLOOD UREA NITROGEN” value (Rattus norvegicus [1]; time 14 day) was 19 mg/dL, the “CARBON DIOXIDE” value (Rattus norvegicus [1]; time 14 day) was 21.5 mmol/L and the CHLORIDE (Rattus norvegicus [1]; time 14 day) was 102.5 MEQ/L. For the same compound, the CHOLESTEROL (Rattus norvegicus [1]; time 14 day) was 79 mg/dL, the CREATININE (Rattus norvegicus [1]; time 14 day) was 0.27 mg/dL and the GLUCOSE (Rattus norvegicus [1]; time 14 day) was 207 mg/dL. For the same compound, the “LACTATE DEHYDROGENASE” value (Rattus norvegicus [1]; time 14 day) was 251.5 u/L, the LIPASE (Rattus norvegicus [1]; time 14 day) was 9 u/L and the PHOSPHORUS (Rattus norvegicus [1]; time 14 day) was 11.95 mg/dL. For the same compound, the POTASSIUM (Rattus norvegicus [1]; time 14 day) was 5.28 MEQ/L, the SODIUM (Rattus norvegicus [1]; time 14 day) was 152.2 MEQ/L and the “TOTAL BILIRUBIN” value (Rattus norvegicus [1]; time 14 day) was 0.25 mg/dL. For the same compound, the “TOTAL PROTEIN” value (Rattus norvegicus [1]; time 14 day) was 6.5 G/DL, the “URIC ACID” value (Rattus norvegicus [1]; time 14 day) was 1.95 mg/dL and the “ABSOLUTE EOSINOPHIL” value (Rattus norvegicus [2]; tissue Blood) was 109.33 CELLS/uL. The “ABSOLUTE LYMPHOCYTE” value (Rattus norvegicus [2]; tissue Blood) was 12916.67 CELLS/uL, the “ABSOLUTE MONOCYTE” value (Rattus norvegicus [2]; tissue Blood) was 245.33 CELLS/uL and the “ABSOLUTE SEGMENTED NEUTROPHIL” value (Rattus norvegicus [2]; tissue Blood) was 1062 CELLS/uL. For the same compound, the BASOPHIL (Rattus norvegicus [2]; tissue Blood) was 0%, the EOSINOPHIL (Rattus norvegicus [2]; tissue Blood) was 0.67% and the “ERYTHROCYTE COUNT” value (Rattus norvegicus [2]; tissue Blood) was 5.87 x10E6/uL. The HEMATOCRIT (Rattus norvegicus [2]; tissue Blood) was 35.33%, the HEMOGLOBIN (Rattus norvegicus [2]; tissue Blood) was 12.87 G/DL and the “LEUKOCYTE COUNT” value (Rattus norvegicus [2]; tissue Blood) was 14.33 x10E3/uL. The LYMPHOCYTE (Rattus norvegicus [2]; tissue Blood) was 90.67%, the “MEAN CORPUSCULAR HEMOGLOBIN” value (Rattus norvegicus [2]; tissue Blood) was 21.93 pg and the “MEAN CORPUSCULAR HEMOGLOBIN CONCENTRATION” value (Rattus norvegicus [2]; tissue Blood) was 36.4 G/DL. The “MEAN CORPUSCULAR VOLUME” value (Rattus norvegicus [2]; tissue Blood) was 60.27 fL, the MONOCYTE (Rattus norvegicus [2]; tissue Blood) was 1.67% and the NEUTROPHIL (Rattus norvegicus [2]; tissue Blood) was 7%. For the same compound, the “NUCLEATED RED BLOOD CELLS” value (Rattus norvegicus [2]; tissue Blood) was 0 /100WBC, the “PLATELET COUNT” value (Rattus norvegicus [2]; tissue Blood) was 831 x10E3/uL and the “ALANINE AMINOTRANSFERASE” value (Rattus norvegicus [2]; tissue Plasma) was 51 u/L. For the same compound, the ALBUMIN (Rattus norvegicus [2]; tissue Plasma) was 4.13 G/DL, the “ALKALINE PHOSPHATASE” value (Rattus norvegicus [2]; tissue Plasma) was 348.67 u/L and the “ASPARTATE AMINOTRANSFERASE” value (Rattus norvegicus [2]; tissue Plasma) was 87 u/L. The “BLOOD UREA NITROGEN” value (Rattus norvegicus [2]; tissue Plasma) was 12.33 mg/dL, the “CARBON DIOXIDE” value (Rattus norvegicus [2]; tissue Plasma) was 26 mmol/L and the CHLORIDE (Rattus norvegicus [2]; tissue Plasma) was 101.67 MEQ/L. For the same compound, the CHOLESTEROL (Rattus norvegicus [2]; tissue Plasma) was 53 mg/dL, the CREATININE (Rattus norvegicus [2]; tissue Plasma) was 0.24 mg/dL and the GLUCOSE (Rattus norvegicus [2]; tissue Plasma) was 189 mg/dL. The “LACTATE DEHYDROGENASE” value (Rattus norvegicus [2]; tissue Plasma) was 338.67 u/L, the LIPASE (Rattus norvegicus [2]; tissue Plasma) was 10 u/L and the PHOSPHORUS (Rattus norvegicus [2]; tissue Plasma) was 14.53 mg/dL. For the same compound, the POTASSIUM (Rattus norvegicus [2]; tissue Plasma) was 6.76 MEQ/L, the SODIUM (Rattus norvegicus [2]; tissue Plasma) was 145.77 MEQ/L and the “TOTAL BILIRUBIN” value (Rattus norvegicus [2]; tissue Plasma) was 0.13 mg/dL. For the same compound, the “TOTAL PROTEIN” value (Rattus norvegicus [2]; tissue Plasma) was 6.1 G/DL and the “URIC ACID” value (Rattus norvegicus [2]; tissue Plasma) was 2.13 mg/dL.
